SMILES strings stand for the structures. Values after ≈ are worked out from the molar mass of the structure shown.

The conditions of this data set: buffer; pH 7.4; 200.0 µM.
Broadly, the kinetic solubility is solubility judged after dilution from a stock solution rather than from solid. As to `O=C(Nc1c(O)c2ccccc2[nH]c1=O)c1ccco1`, the kinetic solubility was > 40.5 µg/mL.
For `Cc1ccc(S(=O)(=O)Nc2nc(-c3ccccc3)cs2)cc1` the value was > 49.6 µg/mL.
For `C=CCOc1ccc(CN(C)CC(O)COc2cccc3ccccc23)cc1` (stereo unspecified) the value was 19.5 µg/mL (≈ 51.7 µM); for `CC(=O)N/C(=C\c1ccccc1)C(=O)OCC(=O)c1c(N)n(C)c(=O)n(C)c1=O`, 18.2 µg/mL (≈ 45.5 µM).
With `CCCNC(=O)Cn1c(=O)n(C)c2ccccc21`, the kinetic solubility was > 37.1 µg/mL.
Consider `O=[N+]([O-])c1ccccc1CNC1CCCc2ccccc21` (stereo unspecified), for which the solubility (kinetic) was 20.8 µg/mL (≈ 73.7 µM).
For `O=C(CCCCC(=O)Nc1ccc(F)cc1F)Nc1ccc(F)cc1F` the value was 4.4 µg/mL (≈ 11.9 µM); for `COc1ccc(C(=O)Nc2ccc3ccccc3n2)c(OC)c1OC`, 2.2 µg/mL (≈ 6.5 µM).
For `COC(=O)C(C(C)C)N1CCc2c(C)nc3c(C#N)cnn3c21` (stereo unspecified) the value was > 47 µg/mL.
`CCOC(=O)COc1ccc2c(c1)c(C(C)=O)c(C)n2Cc1ccccc1` showed a solubility (kinetic) of 6.9 µg/mL (≈ 18.9 µM).
For `COc1ccc(CCC(=O)NCCc2nc3ccccc3[nH]2)cc1` the value was 8.8 µg/mL (≈ 27.2 µM); for `CC(=O)OCC[N+](C)(C)C.[O-][Cl+3]([O-])([O-])[O-]`, > 36.8 µg/mL; for `COc1ccccc1CN1CCc2c([nH]c3ccccc23)C1`, 33.1 µg/mL (≈ 113 µM).
With `O=C(NC1CCCC1)C1CC(=O)N(c2ccccc2)C1` (stereo unspecified) the figure was > 40.9 µg/mL; with `Cc1noc(C)c1S(=O)(=O)Nc1ccccc1OC(F)(F)F`, 48.6 µg/mL (≈ 145 µM); with `COc1ccccc1OCCN(C#N)c1nc(N(C)C)nc(N(C)C)n1`, 6.3 µg/mL (≈ 17.6 µM).
With `Cc1ccc(S(N)(=O)=O)cc1NC(=O)/C=C/c1ccc2c(c1)OCO2` the figure was 2.1 µg/mL (≈ 5.83 µM).
`Cc1cccc(S(=O)(=O)Nc2cc(Cl)ccc2N2CCOCC2)c1` showed a kinetic solubility of 3.6 µg/mL (≈ 9.81 µM).
With `Cc1ccc(S(=O)(=O)N2CCC(C(=O)NCCN3CCOCC3)CC2)cc1C` the figure was 58.4 µg/mL (≈ 143 µM).
With `CC(C)OC(=O)Cc1nc2sc(-c3ccccc3)cc2c(=O)[nH]1` the figure was 2 µg/mL (≈ 6.09 µM); with `CC(=O)O.CC(C)CC1NC(C(=O)O)Cc2c1[nH]c1ccccc21` (stereo unspecified), 48.4 µg/mL; with `Fc1cnc(Cl)nc1NC1CCCCC1`, 27.1 µg/mL (≈ 118 µM).
In turn, `O=C(COC(=O)COc1ccccc1)Nc1ncc(Cl)cc1Cl` had a solubility (kinetic) of 47 µg/mL (≈ 132 µM).
For `CC(=O)c1cccc(OCC(=O)NC2CCCCCC2)c1` the value was > 43.4 µg/mL; for `CCN1CCN(C(=O)/C(=C/c2cccs2)NC(=O)c2ccc(C)c(C)c2)CC1`, 48.5 µg/mL (≈ 122 µM); for `CC(=O)Nc1ccc(S(=O)(=O)Nc2cccc3cccnc23)cc1`, > 51.2 µg/mL.
For `CC(=O)Nc1cc(Br)ccc1O` the value was 32.6 µg/mL (≈ 142 µM); for `Cc1ccccc1NC(=O)c1ccno1`, 23.5 µg/mL (≈ 116 µM).
With `O=C(O)c1ccc(COc2ccc([N+](=O)[O-])cc2)o1` the figure was > 39.5 µg/mL.
Turning to `CC1CCCCC1N=C1NC(C)(C)CS1` (stereo unspecified), the kinetic solubility is > 34 µg/mL.
For `O=C(CN1CCOCC1)N1c2ccccc2Sc2ccccc21` the value was > 49 µg/mL; for `Nc1c2c(nc3sc4c(c13)CCCC4)-c1ccccc1CC2`, < 0.3 µg/mL.
With `O=C(COC(=O)Cc1c[nH]c2ccccc12)Nc1cc(S(=O)(=O)N2CCOCC2)ccc1Cl` the figure was 12.7 µg/mL (≈ 25.8 µM); with `CCNC(=O)Cc1ccc(S(=O)(=O)N2CCOCC2)s1`, > 47.8 µg/mL.
Consider `Cl.OC(CN1CCNCC1)Cn1c2ccccc2c2ccccc21` (stereo unspecified), for which the kinetic solubility came out at 54.4 µg/mL.
As to `Cc1cccc(NS(=O)(=O)c2ccc([N+](=O)[O-])cc2)n1`, the kinetic solubility is 39.4 µg/mL (≈ 134 µM).
For `Cc1cc(-c2ccc(S(=O)(=O)N3CCCCC3)s2)on1` the value was 2.6 µg/mL (≈ 8.32 µM).
For `Cc1cc(=O)[nH]c(/N=C(\N)Nc2ccc(SC(F)F)cc2)n1` the value was 2 µg/mL (≈ 6.15 µM); for `Cc1ccc(/C=N/N2CCOCC2)s1`, > 31.5 µg/mL.
For the compound `CC(OC(=O)c1ccc(Cl)nc1)C(=O)NC(C)(C)C` (stereo unspecified), the solubility (kinetic) is > 42.7 µg/mL.
For `CN(C)c1ccc(C2N(C)C(=O)c3ccccc3N2C)cc1` (stereo unspecified) the value was 40.9 µg/mL (≈ 138 µM); for `O=C1COc2ccc(S(=O)(=O)NCCc3ccccc3)cc2N1`, 13 µg/mL (≈ 39.1 µM).
For `CC(=C1C(=O)c2ccccc2C1=O)N1CCN(c2ccc(F)cc2)CC1` the value was > 52.6 µg/mL.
With `CCCCCN1C(C)=CC(=C(C#N)C#N)C=C1C` the figure was 3.3 µg/mL (≈ 13.7 µM).
`CN(C)CCn1ccc(O)c(Cc2ccc(Cl)cc2)c1=O`: the kinetic solubility worked out at 44.8 µg/mL (≈ 146 µM). Compared with the last compound, the solubility kinetic is about 14-fold higher.
For `Cc1cc(C)n2nc(SCC(=O)Nc3ccc(F)cc3[N+](=O)[O-])nc2n1` the value was > 56.5 µg/mL; for `Cc1ccccc1CSc1[nH]c(=O)ncc1C`, > 36.9 µg/mL; for `COP(=O)(OC)C(Nc1ccc(Cl)cc1)c1ccccc1` (stereo unspecified), > 48.9 µg/mL.
For `Cc1nc(N)ncc1Sc1ccccc1` the value was 5.2 µg/mL (≈ 23.9 µM); for `Cc1nc(C)c(C(=O)OCC(=O)Nc2ccccc2)s1`, > 43.6 µg/mL.
For `Cc1cc(C)c(NC(=O)CN2C(=O)NC3(CCc4ccccc43)C2=O)c(Cl)c1` (stereo unspecified) the value was 33.1 µg/mL (≈ 83.2 µM).

Values taken from PubChem BioAssay AID1996.
